# Like-named read-outs stand apart in the source and are kept apart here.
# Columns and labels:
# [1] = target: T1, UGT 1A9 (Homo sapiens, UniProt O60656); test: Glucuronidation with recombinant UGT1A9; type: in vitro ADME; design: key: −: the lack of UGT activity; +: the significant UGT activity; conditions: 0.05 mM compound, 1 mg/mL UGT, 5 mM UDPGA
# T1 construct: His tag; purchased Corning, NY, USA (through DIAG-MED, Poland); host or cells: baculovirus-insect cells (Supersomes); Results say Sf9 cells
# T1 sequence (O60656 26-530): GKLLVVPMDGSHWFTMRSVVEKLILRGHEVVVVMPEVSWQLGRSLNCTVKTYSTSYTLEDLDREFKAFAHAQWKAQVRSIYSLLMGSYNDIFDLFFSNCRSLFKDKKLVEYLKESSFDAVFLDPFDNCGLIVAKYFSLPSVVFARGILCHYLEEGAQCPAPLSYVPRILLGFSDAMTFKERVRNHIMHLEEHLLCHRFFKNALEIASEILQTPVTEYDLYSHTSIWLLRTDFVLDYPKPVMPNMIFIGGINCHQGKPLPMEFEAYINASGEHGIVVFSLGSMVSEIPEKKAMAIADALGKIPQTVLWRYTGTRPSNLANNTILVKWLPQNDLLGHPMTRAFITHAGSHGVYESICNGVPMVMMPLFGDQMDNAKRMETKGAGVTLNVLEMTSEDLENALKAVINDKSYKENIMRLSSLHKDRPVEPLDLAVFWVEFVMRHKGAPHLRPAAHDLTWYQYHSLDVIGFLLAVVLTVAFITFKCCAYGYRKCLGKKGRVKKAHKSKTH
# Experimental: (§1) Recombinant UGT isoform protein (1 mg/mL) was assayed for activity toward tested UAs as follows. The proteins were incubated in a buffer containing 0.1 M HEPES (pH 7.4), 8 mM MgCl2 and alamethicin (25 μg/mL) with either 0.05 mM substrate in total volume 70 µL (alamethicin was added to permeabilize the membrane). Substrates were also in buffer HEPES, pH 7.4. Reactions were started by the addition of UDPGA (5 mM) and were incubated for specified time at 37 °C. The reactions were stopped by the addition of 8.75 µL of 1 M HCl, followed by centrifugation at 13400 rpm for 10 min to pellet the denatured protein. The supernatant fractions were used for HPLC analysis. Control reactions omitting substrate were run with each assay. All incubations were performed in two repetitions.
# [2] = target: T2, UGT2B7 (Homo sapiens, UniProt P16662); test: Glucuronidation with recombinant UGT2B7; type: in vitro ADME; design: key: −: the lack of UGT activity; +: the significant UGT activity; conditions: 0.05 mM compound, 1 mg/mL UGT, 5 mM UDPGA
# T2 construct: purchased Corning, NY, USA (through DIAG-MED, Poland); host or cells: baculovirus-insect cells (Supersomes)
# T2 sequence (P16662 24-529): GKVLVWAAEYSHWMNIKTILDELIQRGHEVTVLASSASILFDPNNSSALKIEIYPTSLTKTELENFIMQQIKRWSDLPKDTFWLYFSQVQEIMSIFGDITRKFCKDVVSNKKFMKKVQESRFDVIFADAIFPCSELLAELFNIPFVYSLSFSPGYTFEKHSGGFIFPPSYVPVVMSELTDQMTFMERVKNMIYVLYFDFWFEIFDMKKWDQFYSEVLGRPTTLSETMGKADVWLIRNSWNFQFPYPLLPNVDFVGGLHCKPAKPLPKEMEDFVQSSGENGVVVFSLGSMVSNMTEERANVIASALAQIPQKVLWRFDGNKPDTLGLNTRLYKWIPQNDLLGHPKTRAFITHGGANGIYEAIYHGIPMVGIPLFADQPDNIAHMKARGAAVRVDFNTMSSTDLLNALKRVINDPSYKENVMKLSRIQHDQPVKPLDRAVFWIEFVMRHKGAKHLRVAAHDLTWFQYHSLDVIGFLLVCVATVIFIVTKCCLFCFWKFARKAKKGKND
# Experimental: as §1
# [3] = pKa determination by spectrophotometric titration; type: physicochemical; conditions: 23 aqueous buffer solutions, pH 1.5-11, pH 1.5, 0.02 mM compound, pH 1.5-11, UV-vis, principal component analysis
# Experimental: The concentration of the compounds in the working solutions was 0.02 mM, pH was changed in the range 1.5–11 at 23 buffer solutions: 1.5–3.5 (interval 0.5 unit—HCl solution), 4.0–5.5 (interval 0.5 unit—acetic buffer), 6.1–7.5 (interval 0.2 unit—PIPES (2-[4-(2-sulphoethyl)piperazine-1-ethanesulphonic acid) buffer), 7.7–8.1 (interval 0.2 unit—HEPES (4-(2-hydroxyethyl)piperazine-1-ethanesulphonic acid) buffer) and 9–11 (interval 1 unit—borate buffer).
# PKa values for tested UAs were determined by spectrophotometric titration using a Cary 300 Bio instrument. The UV-vis spectra obtained for all solutions in the examined pH range were subjected to the chemometric technique principal component analysis. This procedure makes it possible to determine the number of spectral forms present in the tested samples and to estimate the mole fractions for each of them. To determine pKa values the relationships between the mole fractions of individual spectral forms and the pH of the samples were used. The first approximation of pKa values have been assigned to the values of pH corresponding to the central points of each titration wave. Numerical optimization by the adjustment of pKa values to the obtained molar fractions allowed to refine these values and the cross-validation procedure let to determine their standard deviations.
# [4] = target: T3, P4502C19 (Homo sapiens, UniProt P33261); test: Metabolism with human recombinant P4502C19; type: in vitro ADME; conditions: 0.05 mM compound, 1 mg/mL P4502C19, 2 mM NADPH, 30 min
# T3 construct: purchased Cypex, Dundee, Scotland, UK (through Tebu-Bio); host or cells: Escherichia coli (Bactosomes)
# Experimental: (§2) UT-RLMs (2 mg/mL) and P450-RLMs induced with Dex, 3MC, or PB and recombinant P4502C19 and P4503A4 (1 mg/mL) were assayed for activity toward tested UAs as follows. The proteins were incubated in a buffer containing 0.1 M HEPES (pH 7.4), 2 mM MgCl2 with 0.05 mM substrate in total volume 70 µL. Substrates were added also in buffer HEPES, pH 7.4. Reactions were started by the addition of NADPH (2 mM) and were incubated for specified time at 37 °C. The reactions were stopped by the addition of 8.75 µL of 1 M HCl, followed by centrifugation at 13,400 rpm for 10 min to pellet the denatured protein. The supernatant fractions were used for high-performance liquid chromatography (HPLC) analysis. Control reactions omitting substrate were run with each assay. All incubations were performed in two repetitions.
# [5] = target: T4, P4503A4 (Homo sapiens, UniProt P08684); test: Metabolism with human recombinant P4503A4; type: in vitro ADME; conditions: 0.05 mM compound, 1 mg/mL P4503A4, 2 mM NADPH, 30 min
# T4 construct: purchased Cypex, Dundee, Scotland, UK (through Tebu-Bio); host or cells: Escherichia coli (Bactosomes)
# Experimental: as §2
# T3 sequence (P33261 whole entry): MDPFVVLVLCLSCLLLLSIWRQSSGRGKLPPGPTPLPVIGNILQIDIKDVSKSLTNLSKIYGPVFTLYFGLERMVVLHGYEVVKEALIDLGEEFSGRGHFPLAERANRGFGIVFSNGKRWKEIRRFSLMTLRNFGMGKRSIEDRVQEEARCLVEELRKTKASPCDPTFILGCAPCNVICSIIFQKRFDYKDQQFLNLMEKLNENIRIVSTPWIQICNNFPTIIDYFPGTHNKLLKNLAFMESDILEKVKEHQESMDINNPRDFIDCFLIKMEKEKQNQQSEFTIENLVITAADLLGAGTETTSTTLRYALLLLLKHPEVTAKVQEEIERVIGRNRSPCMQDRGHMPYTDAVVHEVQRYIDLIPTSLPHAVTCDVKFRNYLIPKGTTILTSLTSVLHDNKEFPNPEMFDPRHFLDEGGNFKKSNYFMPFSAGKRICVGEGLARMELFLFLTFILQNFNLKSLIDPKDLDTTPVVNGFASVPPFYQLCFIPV
# T4 sequence (P08684 whole entry): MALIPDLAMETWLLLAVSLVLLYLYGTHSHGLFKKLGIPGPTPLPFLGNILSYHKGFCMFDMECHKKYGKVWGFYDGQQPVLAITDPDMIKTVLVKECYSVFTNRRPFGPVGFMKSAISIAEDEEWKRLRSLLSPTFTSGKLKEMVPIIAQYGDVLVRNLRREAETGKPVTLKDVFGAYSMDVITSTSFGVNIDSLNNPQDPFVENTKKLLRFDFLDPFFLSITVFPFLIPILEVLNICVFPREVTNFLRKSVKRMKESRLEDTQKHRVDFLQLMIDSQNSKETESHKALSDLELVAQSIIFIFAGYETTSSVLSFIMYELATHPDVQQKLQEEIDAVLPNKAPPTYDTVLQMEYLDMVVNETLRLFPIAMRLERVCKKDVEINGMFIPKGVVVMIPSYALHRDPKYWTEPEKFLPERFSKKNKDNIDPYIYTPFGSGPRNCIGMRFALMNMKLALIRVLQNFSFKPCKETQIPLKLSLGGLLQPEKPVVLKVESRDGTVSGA
SMILES,Glucuronidation potency UGT 1A9 [1],Glucuronidation potency UGT 2B7 [2],pKa ([3]; read-out: pKa 1),pKa ([3]; read-out: pKa 2),pKa ([3]; read-out: pKa 3),substrate transformed [4] [%],substrate transformed [5]
Cc1ccc([N+](=O)[O-])c2c(NCCCN(C)CCCNc3ccc4ncn5c6ccc(O)cc6c(=O)c3c45)c3ccccc3nc12 [C-2045],+,−,2.33,6.37,7.5,11,30%
CN(CCCNc1c2ccccc2nc2cccc([N+](=O)[O-])c12)CCCNc1ccc2ncn3c4ccccc4c(=O)c1c23 [C-2028],−,−,2.22,6.01,7.41,59,72%
Cc1ccc([N+](=O)[O-])c2c(NCCCN(C)CCCNc3ccc4ncn5c6ccccc6c(=O)c3c45)c3ccccc3nc12 [C-2053],−,−,2.19,6.19,7.49,~64,approximately 77%
